For twelve molecules, IC50 results are on record in patent publication US20230139171A1 (SITA Information Networking Computing UK Limited, priority 2019, published 2023).

Common to all, as to format: cell-based
One assay deals with T1, human TLR8 (Homo sapiens, UniProt Q9NR97).
T1 construct: host or cells: HEK-Blue cells
T1 sequence (Q9NR97 27-1041): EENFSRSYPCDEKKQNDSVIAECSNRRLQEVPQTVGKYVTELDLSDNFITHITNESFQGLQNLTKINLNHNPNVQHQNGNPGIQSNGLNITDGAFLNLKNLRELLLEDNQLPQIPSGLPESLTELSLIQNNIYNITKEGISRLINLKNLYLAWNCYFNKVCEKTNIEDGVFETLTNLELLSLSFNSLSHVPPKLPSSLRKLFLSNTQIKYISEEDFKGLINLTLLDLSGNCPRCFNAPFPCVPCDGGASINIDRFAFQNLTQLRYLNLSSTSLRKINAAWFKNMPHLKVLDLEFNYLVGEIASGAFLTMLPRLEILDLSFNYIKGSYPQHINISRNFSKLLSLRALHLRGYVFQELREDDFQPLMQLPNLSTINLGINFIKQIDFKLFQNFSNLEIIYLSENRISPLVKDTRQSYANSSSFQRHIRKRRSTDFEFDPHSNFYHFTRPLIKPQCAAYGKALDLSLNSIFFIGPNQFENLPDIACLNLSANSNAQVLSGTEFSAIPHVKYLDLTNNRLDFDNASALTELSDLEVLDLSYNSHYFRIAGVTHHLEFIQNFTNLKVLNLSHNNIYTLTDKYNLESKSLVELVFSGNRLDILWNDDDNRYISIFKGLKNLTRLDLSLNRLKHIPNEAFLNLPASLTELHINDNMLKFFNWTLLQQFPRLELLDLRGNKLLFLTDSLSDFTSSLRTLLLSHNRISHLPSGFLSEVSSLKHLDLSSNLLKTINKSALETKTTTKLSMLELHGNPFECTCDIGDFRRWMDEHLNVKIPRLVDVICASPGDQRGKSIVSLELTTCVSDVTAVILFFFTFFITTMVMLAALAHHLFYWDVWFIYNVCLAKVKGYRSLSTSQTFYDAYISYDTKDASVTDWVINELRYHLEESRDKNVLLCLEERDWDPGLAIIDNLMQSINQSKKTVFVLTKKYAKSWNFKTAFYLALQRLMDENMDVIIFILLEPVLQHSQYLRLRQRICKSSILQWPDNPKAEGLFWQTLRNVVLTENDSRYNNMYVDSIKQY
Kind of assay: TLR8 inhibition reporter assay (HEK-Blue cells, SEAP reporter, R848 stimulation). The following applies: HEK-Blue cells overexpressing human TLR8, SEAP reporter, R848 15.9 μM; read-out: TLR8 IC50. The procedure, abridged: (§1)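 Agonists used: gardiquimod 7.5 μM (TLR7), R848 15.9 μM (TLR8), ODN2006 5 nM (TLR9), added after 30 min room-temperature compound pre-treatment (0.05 nM–50 μM) of receptor-overexpressing HEK-Blue cells. SEAP reporter (NF-κB/AP-1 driven) read after 22 h at 37 °C; inhibition scaled between agonist+DMSO and reference-inhibitor wells.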
Background: Reporter assays use an easily measured gene product as a stand-in for the process of interest.

The target of a further assay is T2, human TLR7 (Homo sapiens, UniProt Q9NYK1).
T2 construct: host or cells: HEK-Blue cells
T2 sequence (Q9NYK1 27-1049): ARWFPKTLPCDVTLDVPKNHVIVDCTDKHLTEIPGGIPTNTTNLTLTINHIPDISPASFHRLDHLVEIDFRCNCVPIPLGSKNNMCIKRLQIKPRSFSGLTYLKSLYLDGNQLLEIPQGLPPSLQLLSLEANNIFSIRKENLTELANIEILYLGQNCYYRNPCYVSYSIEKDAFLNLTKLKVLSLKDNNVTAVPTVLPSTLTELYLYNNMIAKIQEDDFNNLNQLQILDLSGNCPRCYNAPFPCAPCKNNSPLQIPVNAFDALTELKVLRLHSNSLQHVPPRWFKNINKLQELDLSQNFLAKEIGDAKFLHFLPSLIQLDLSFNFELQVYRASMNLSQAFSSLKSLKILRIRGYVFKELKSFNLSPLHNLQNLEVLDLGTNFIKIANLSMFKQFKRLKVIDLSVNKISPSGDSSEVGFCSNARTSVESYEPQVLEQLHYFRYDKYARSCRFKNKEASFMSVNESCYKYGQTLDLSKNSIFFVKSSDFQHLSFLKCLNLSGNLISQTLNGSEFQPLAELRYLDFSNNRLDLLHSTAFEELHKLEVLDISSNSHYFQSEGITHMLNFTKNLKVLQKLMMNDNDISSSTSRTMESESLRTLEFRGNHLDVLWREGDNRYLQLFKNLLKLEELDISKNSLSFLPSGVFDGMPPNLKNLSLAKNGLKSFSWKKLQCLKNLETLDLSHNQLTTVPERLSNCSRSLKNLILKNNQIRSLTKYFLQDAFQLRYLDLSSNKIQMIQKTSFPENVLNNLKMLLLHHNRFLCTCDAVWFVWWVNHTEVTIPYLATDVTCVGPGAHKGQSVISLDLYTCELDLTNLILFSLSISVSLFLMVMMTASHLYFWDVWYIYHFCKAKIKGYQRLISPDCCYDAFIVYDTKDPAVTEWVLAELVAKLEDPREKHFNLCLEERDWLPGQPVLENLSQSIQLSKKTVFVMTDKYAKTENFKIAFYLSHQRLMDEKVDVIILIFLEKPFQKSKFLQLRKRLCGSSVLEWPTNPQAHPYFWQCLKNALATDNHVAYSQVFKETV
Kind of assay: TLR7 inhibition reporter assay (HEK-Blue cells, SEAP reporter, gardiquimod stimulation). The following applies: HEK-Blue cells overexpressing human TLR7, SEAP reporter, gardiquimod 7.5 μM; read-out: TLR7 IC50. An outline of the steps: as §1

The target in another assay is T3, human TLR9 (Homo sapiens, UniProt Q9NR96).
T3 construct: host or cells: HEK-Blue cells
T3 sequence (Q9NR96 26-1032): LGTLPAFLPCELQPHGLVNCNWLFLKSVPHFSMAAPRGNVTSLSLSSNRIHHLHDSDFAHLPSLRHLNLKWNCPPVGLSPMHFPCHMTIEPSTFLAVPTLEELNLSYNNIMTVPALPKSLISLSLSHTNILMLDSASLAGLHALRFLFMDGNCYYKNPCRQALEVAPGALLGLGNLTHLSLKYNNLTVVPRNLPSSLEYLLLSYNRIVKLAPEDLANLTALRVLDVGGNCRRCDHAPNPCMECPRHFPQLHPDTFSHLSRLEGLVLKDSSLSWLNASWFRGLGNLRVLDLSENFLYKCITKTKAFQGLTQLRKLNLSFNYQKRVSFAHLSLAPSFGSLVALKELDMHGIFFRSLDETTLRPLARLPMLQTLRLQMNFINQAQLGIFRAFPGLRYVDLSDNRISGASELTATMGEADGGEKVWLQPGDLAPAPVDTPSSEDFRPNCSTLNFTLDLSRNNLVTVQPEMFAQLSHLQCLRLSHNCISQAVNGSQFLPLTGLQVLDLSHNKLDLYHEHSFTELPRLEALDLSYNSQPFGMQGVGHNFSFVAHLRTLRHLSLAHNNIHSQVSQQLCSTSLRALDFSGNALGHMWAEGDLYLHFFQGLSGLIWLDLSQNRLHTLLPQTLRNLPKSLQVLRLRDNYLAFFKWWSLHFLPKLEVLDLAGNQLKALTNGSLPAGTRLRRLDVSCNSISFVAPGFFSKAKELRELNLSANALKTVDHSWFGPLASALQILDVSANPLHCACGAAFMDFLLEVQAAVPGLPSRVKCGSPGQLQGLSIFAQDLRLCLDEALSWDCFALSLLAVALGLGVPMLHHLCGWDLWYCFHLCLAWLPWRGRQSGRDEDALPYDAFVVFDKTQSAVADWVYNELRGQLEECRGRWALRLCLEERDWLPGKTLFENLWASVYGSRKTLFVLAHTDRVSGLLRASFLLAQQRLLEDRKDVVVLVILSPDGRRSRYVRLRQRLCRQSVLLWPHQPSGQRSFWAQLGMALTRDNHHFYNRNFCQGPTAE
Kind of assay: TLR9 inhibition reporter assay (HEK-Blue cells, SEAP reporter, ODN2006 stimulation). The note with it: HEK-Blue cells overexpressing human TLR9, SEAP reporter, ODN2006 5 nM. The procedure, abridged: as §1

On to `Cc1cc(-c2[nH]c3sc(C4CCN(CC(C)(C)O)CC4)nc3c2C(C)C)cc(C)n1` [Example 29, 1-(4-(5-(2,6-dimethylpyridin-4-yl)-6-isopropyl-4H-pyrrolo[3,2-d]thiazol-2-yl)piperidin-1-yl)-2-methylpropan-2-ol], for which the figures for the IC50 on human TLR8, at human TLR7 and against human TLR9 were 0.00191 µM, 0.0184 µM and 0.216 µM, respectively.

Consider `CC(C)c1c(-c2cn(C)c3ncccc23)[nH]c2sc(C3CCN(CC(=O)N(C)C)CC3)nc12` [Example 30, 2-(4-(6-isopropyl-5-(1-methyl-1H-pyrrolo[2,3-b]pyridin-3-yl)-4H-pyrrolo[3,2-d]thiazol-2-yl)piperidin-1-yl)-N,N-dimethylacetamide], for which the values for the IC50 on human TLR8, on human TLR7 and against human TLR9 were 0.00207 µM, 0.00437 µM and 14.8 µM, respectively.

Take `CC(C)c1c(-c2cn(C)c3ncccc23)[nH]c2sc(C3CCN(C4CCOCC4)CC3)nc12` [Example 35, 6-isopropyl-5-(1-methyl-1H-pyrrolo[2,3-b]pyridin-3-yl)-2-(1-(tetrahydro-2H-pyran-4-yl)piperidin-4-yl)-4H-pyrrolo[3,2-d]thiazole]: the values for the IC50 on human TLR8, on human TLR7 and at human TLR9 were 0.00079 µM, 0.00277 µM and 4.35 µM, respectively.

As to `CC(C)c1c(-c2cn(C)c3ncccc23)[nH]c2sc(C3CCN(C(C)C)CC3)nc12` [Example 36, 6-isopropyl-2-(1-isopropylpiperidin-4-yl)-5-(1-methyl-1H-pyrrolo[2,3-b]pyridin-3-yl)-4H-pyrrolo[3,2-d]thiazole], the IC50 – broadly, the concentration at which inhibition is half-maximal – at human TLR8 was 1.54 µM; on human TLR7 it was 1.3 µM; against human TLR9, 25.2 µM.

With `CC(C)c1c(-c2ccc(C#N)c3ncccc23)[nH]c2sc(C3CCN(C4COC4)CC3)nc12` [Example 37, 5-(6-isopropyl-2-(1-(oxetan-3-yl)piperidin-4-yl)-4H-pyrrolo[3,2-d]thiazol-5-yl)quinoline-8-carbonitrile], the values for the IC50 at human TLR8, at human TLR7 and on human TLR9 were 0.027 µM, 0.0121 µM and 27.9 µM, respectively.

As for `CC(C)c1c(-c2ccc(C#N)c3ncccc23)[nH]c2sc(C3CCN(C4CCOCC4)CC3)nc12` [Example 38, 5-(6-isopropyl-2-(1-(tetrahydro-2H-pyran-4-yl)piperidin-4-yl)-4H-pyrrolo[3,2-d]thiazol-5-yl) quinoline-8-carbonitrile], the results for the IC50 at human TLR8, at human TLR7 and on human TLR9 were 0.00443 µM, 0.00793 µM and 2.28 µM, respectively.

Regarding `CC(C)c1c(-c2ccc(C#N)c3ncccc23)[nH]c2sc(C3CCN(C(=O)CN(C)C)CC3)nc12` [Example 39, 5-(2-(1-(dimethylglycyl)piperidin-4-yl)-6-isopropyl-4H-pyrrolo[3,2-d]thiazol-5-yl)quinoline-8-carbonitrile], the IC50 at human TLR8 is 0.0255 µM; on human TLR7, 0.00831 µM; against human TLR9, 3.56 µM.

In the case of `CC(C)c1c(-c2ccc(C#N)c3ncccc23)[nH]c2sc(C3CCN(CC(=O)N(C)C)CC3)nc12` [Example 40, 2-(4-(5-(8-cyanoquinolin-5-yl)-6-isopropyl-4H-pyrrolo[3,2-d]thiazol-2-yl)piperidin-1-yl)-N,N-dimethylacetamide], the IC50 is 0.0311 µM on human TLR8, 0.0299 µM at human TLR7 and 18.9 µM against human TLR9.

`Cc1c(-c2[nH]c3sc(C4CCNCC4)nc3c2C(C)C)cn2ncnc2c1C` [Example 41, 5-(7,8-dimethyl-[1,2,4]triazolo[1,5-a]pyridin-6-yl)-6-isopropyl-2-(piperidin-4-yl)-4H-pyrrolo[3,2-d]thiazole]: the IC50 at human TLR8 amounted to 0.00266 µM; on human TLR7, 0.00119 µM; against human TLR9, 8.43 µM.

For the molecule `Cc1c(-c2[nH]c3sc(C4CCNCC4)nc3c2C(C)C)cn(C)c(=O)c1C` [Example 42, 5-(6-isopropyl-2-(piperidin-4-yl)-4H-pyrrolo[3,2-d]thiazol-5-yl)-1,3,4-trimethylpyridin-2(1H)-one], the values for the IC50 on human TLR8, on human TLR7 and against human TLR9 were 0.00677 µM, 0.00299 µM and 19 µM, respectively.

Turning to `Cc1c(-c2[nH]c3sc(C4CCN(C(C)C)CC4)nc3c2C(C)C)cn2ncnc2c1C` [Example 44, 5-(7,8-dimethyl-[1,2,4]triazolo[1,5-a]pyridin-6-yl)-6-isopropyl-2-(1-isopropylpiperidin-4-yl)-4H-pyrrolo[3,2-d]thiazole], the IC50 was determined as 0.00063 µM at human TLR8, 0.00168 µM on human TLR7 and 15.1 µM against human TLR9.

`Cc1c(-c2[nH]c3sc(C4CCN(S(C)(=O)=O)CC4)nc3c2C(C)C)cn2ncnc2c1C` [Example 45, 5-(7,8-dimethyl-[1,2,4]triazolo[1,5-a]pyridin-6-yl)-6-isopropyl-2-(1-(methylsulfonyl)piperidin-4-yl)-4H-pyrrolo[3,2-d]thiazole]: the IC50 worked out at 0.0195 µM at human TLR8, 0.00184 µM at human TLR7 and 45.4 µM against human TLR9.
